Test results: US7265103B2, “Substituted amino isoxazoline derivatives and their use as anti-depressants” (Janssen Pharmaceutica NV., priority 2002, dated 2007)
pIC50: −log10 of the molar value.

What was measured:
hα2C receptor = molecular target: T1, hα2C receptor (Homo sapiens, UniProt P18825); assay: Radioligand binding experiment for α2C-adrenergic receptor ([3H]-raulwolscine); settings: CHO cell membranes with human α2C receptor, [3H]raulwolscine 1 nM; read-out: pIC50 α2C (converted)
T1 construct: expressed in transfected cells; host or cells: CHO cells
T1 sequence (P18825 1-462): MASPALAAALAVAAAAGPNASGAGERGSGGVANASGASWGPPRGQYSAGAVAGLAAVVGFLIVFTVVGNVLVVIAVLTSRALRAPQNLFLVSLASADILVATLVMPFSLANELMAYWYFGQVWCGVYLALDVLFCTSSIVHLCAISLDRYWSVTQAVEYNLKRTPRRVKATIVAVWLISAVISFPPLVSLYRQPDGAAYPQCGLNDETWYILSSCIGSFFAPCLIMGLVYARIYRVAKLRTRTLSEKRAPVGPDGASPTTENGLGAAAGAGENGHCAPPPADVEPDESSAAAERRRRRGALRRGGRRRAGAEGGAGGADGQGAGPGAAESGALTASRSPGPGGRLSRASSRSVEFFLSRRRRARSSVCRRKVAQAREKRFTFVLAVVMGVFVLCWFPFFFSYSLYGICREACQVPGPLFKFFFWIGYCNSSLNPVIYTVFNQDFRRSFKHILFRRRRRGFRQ
How it was run: (§1)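 Membranes from CHO cells stably expressing human α2A or α2C receptors (sodium butyrate-induced) incubated with 1 nM [3H]raulwolscine in 25 mM glycylglycine pH 8.0 for 60 min at 25° C, then filtered. Non-specific binding defined with 1 μM oxymetazoline (α2A) or 1 μM spiroxatrine (α2C); pIC50 from sigmoidal competition curves.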

hα2A receptor = molecular target: T2, hα2A receptor (Homo sapiens, UniProt P08913); assay: Radioligand binding experiment for α2A-adrenergic receptor ([3H]-raulwolscine); settings: CHO cell membranes with human α2A receptor, [3H]raulwolscine 1 nM; read-out: pIC50 α2A (converted)
T2 construct: expressed in transfected cells; host or cells: CHO cells
T2 sequence (P08913 1-465): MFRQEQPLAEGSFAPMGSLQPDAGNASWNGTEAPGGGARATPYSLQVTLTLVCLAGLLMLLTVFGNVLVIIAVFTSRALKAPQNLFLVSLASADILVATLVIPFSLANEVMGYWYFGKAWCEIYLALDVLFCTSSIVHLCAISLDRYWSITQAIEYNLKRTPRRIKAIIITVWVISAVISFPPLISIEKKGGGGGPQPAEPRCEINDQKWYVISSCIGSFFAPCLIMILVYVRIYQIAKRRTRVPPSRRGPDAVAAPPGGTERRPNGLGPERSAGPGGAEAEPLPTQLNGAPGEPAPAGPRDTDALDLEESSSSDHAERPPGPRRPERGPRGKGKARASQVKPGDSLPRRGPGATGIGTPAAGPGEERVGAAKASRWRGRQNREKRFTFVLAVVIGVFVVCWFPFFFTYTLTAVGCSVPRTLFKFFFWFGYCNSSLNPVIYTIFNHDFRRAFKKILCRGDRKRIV
How it was run: as §1

h5-HT transporter = molecular target: T3, h5-HT transporter (Homo sapiens, UniProt P31645); assay: Radioligand binding experiment for 5-HT transporter ([3H]paroxetine); settings: human platelet membranes, [3H]paroxetine 0.5 nM
T3 construct: Human platelet membranes (Oceanix Biosciences Corporation, Hanover, Md., USA) were thawed; tissue Oceanix Biosciences Corporation; host or cells: human platelet membranes
T3 sequence (P31645 whole entry): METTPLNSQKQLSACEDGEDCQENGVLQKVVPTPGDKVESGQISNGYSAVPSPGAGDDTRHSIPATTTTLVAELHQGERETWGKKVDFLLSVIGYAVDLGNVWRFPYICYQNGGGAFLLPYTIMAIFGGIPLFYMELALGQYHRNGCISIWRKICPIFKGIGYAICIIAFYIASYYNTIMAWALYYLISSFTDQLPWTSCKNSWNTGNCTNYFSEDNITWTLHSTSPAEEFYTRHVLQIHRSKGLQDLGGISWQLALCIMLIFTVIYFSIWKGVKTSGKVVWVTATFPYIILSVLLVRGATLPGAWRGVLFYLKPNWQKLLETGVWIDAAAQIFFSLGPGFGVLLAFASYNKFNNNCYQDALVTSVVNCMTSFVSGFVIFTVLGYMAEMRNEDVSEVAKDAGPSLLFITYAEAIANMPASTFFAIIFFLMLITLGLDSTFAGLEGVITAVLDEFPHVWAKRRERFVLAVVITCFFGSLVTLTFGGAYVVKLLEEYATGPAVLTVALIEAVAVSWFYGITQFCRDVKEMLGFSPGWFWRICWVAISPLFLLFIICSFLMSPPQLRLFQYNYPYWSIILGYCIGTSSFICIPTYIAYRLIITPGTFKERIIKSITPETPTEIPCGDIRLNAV
How it was run: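 Competition binding on human platelet membranes (50-100 μg protein) in 50 mM Tris-HCl, 120 mM NaCl, 5 mM KCl with 0.5 nM [3H]paroxetine, 60 min at 25 °C, filtration and scintillation counting. Non-specific binding defined with 1 μM imipramine; pIC50 from nonlinear sigmoidal fits of percent total binding.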

IC50 (hα2C receptor) [nM] | IC50 (hα2A receptor) [nM] | melting point [°C] | pIC50 (h5-HT transporter) | Compound
3.98 | 126 | 166.4 to 178.2 | 6.90 | CC(=Cc1ccc(F)cc1)CN1CCN(CC2ON=C3c4ccc(N5CCN(Cc6ccccc6)CC5)cc4OCC32)CC1 (stereo not drawn) [Compound 80]
20 | 126 | 154.9 to 160.4 | 7.20 | CC(=Cc1ccc(F)cc1)CN1CCN(CC2ON=C3c4ccc(N5CCN(CC=Cc6ccccc6)CC5)cc4OCC32)CC1 (stereo not drawn) [Compound 81]
1.26 | 1.58 | 143.5 to 145.9 | 7.40 | COc1cc2c(cc1N1CCOCC1)OCC1C2=NOC1CN1CCN(CC(C)=Cc2ccccc2)CC1 (stereo not drawn) [Compound 82]
1.26 | 6.31 | 179.2 to 188.8 | 7.60 | CC(=Cc1ccc(F)cc1)CN1CCN(CC2ON=C3c4ccc(N5CCOCC5)cc4OCC32)CC1 (stereo not drawn) [Compound 84]
1 | 3.98 | 145.4 to 153.1 | 8.40 | C/C(=C\c1cccc(F)c1)CN1CCN(CC2ON=C3c4cc5c(cc4OCC32)NCCO5)CC1 (stereo not drawn) [Compound 89]
1.58 | 15.8 | 160.6 to 172.2 | 7.80 | C/C(=C\c1ccc(F)cc1)CN1CCN(CC2ON=C3c4cc5c(cc4OCC32)NCCO5)CC1 (stereo not drawn) [Compound 90]
1.58 | 6.31 | 130.4 to 146.4 | 7.50 | C/C(=C\CN1CCN(CC2ON=C3c4cc5c(cc4OCC32)NCCO5)CC1)c1ccccc1 (stereo not drawn) [Compound 91]
2.51 | 20 | 85.3 to 103.9 | 8.30 | c1ccc2cc(CN3CCN(CC4ON=C5c6cc7c(cc6OCC54)NCCO7)CC3)ccc2c1 (stereo not drawn) [Compound 92]
31.6 | 316 | 186.5 to 198 | 6.90 | Clc1ccc(CN2CCN(CC3ON=C4c5cc6c(cc5OCC43)NCCO6)CC2)cc1 (stereo not drawn) [Compound 94]
